Values after ≈ are worked out from the molar mass of the structure shown.
Experiments:
Folsomia candida = conditions: chronic/long-term; reproduction
Oncorhynchus mykiss = conditions: chronic/long-term; duration: 28 days
Apis mellifera = conditions: acute, mortality
Landoltia sp. = conditions: acute
Canidae = conditions: chronic, duration: 1 years, oral, Dog Other
Danio rerio = conditions: acute; duration: 96 hours; mortality
Aphidius rhopalosiphi = assay: LR50; higher = less toxic; conditions: not reported; mortality
Typhlodromus pyri = assay: LR50; higher = less toxic; conditions: not reported; mortality

SMILES	NOEC (Folsomia candida)	NOEC (Tagia sp.; chronic/long-term, duration: 56 days)	NOEC (Oncorhynchus mykiss)	LD50 (Apis mellifera; dermal)	LD50 (Apis mellifera; oral, unspecified)	NOEC (Landoltia sp.)	NOEC (Tagia sp.; acute)	LC50 (Tagia sp.; acute, mortality)	LC50 (Daphnia magna; acute, duration: 96 hours, mortality)	NOEC (Daphnia magna; chronic/long-term, duration: 21 days)	NOAEL (Canidae)	LOAEL (Canidae; clinical signs)	LD50 (Rattus norvegicus; acute, oral, mortality)	NOAEL (Rattus norvegicus; reproduction developmental, reproduction)	LC50 (Danio rerio)	LR50 (Aphidius rhopalosiphi)	LR50 (Typhlodromus pyri)
CCc1cccc(C)c1N(COC(C)C)C(=O)C(=O)O	> 1000 mg/kg																
CCc1cccc(C)c1NC(=O)CS(=O)(=O)O [2-(2-ethyl-6-methylanilino)-2-oxoethane-1-sulfonic acid]	> 1000 mg/kg	3.5 mg/kg															
CCc1cccc(C)c1N(COC(C)C)C(=O)CCl [Propisochlor]			0.18 mg/L	> 100 µg/piece	> 111 µg/piece	21 µg/L	62.5 mg/kg	248 mg/kg	4.46 µg/mL (≈ 15.7 µM)	0.93 mg/L	5 mg/kg-day	5 mg/kg-day	1920 mg/kg	10 mg/kg-day	0.93 µg/mL (≈ 3.28 µM)	20300 g/ha	1500 g/ha
